Measurements published in patent US11046745B2, “Peptide mimotopes of the CD3 T-cell co-receptor epsilon chain and uses thereof” (BioNTech SE, priority 2015, dated 2021).
Positions of bridges follow the written chain, without caps; N, C: chain ends. Residues, ends and D or L forms follow the SMILES beside them. *: point of attachment. Biotin = O=C1N[C@H]2[C@H](CS[C@H]2CCCCC(=O)*)N1

Columns and labels:
[1] = tested on: TR66 antibody (CD3ε specific antibody, clone TR66); test: Binding analysis using biolayer interferometry (BLI), Octet Red, biotinylated peptides on streptavidin sensors; conditions: 500 nM TR66 antibody, one concentration
Procedure: FIG. 5. Comparative binding analysis of matured TR66 mimotopes aCD3-04-002 and aCD3-04-013 using biolayer interferometry (BLI) on an Octet Red system (fortéBIO). Biotinylated peptides were immobilized onto streptavidin (SA) sensors. After blocking with 1× blocking buffer and biocytin association and dissociaten rates of TR66 binding were recorded over a period of 2400 sec respectively. The antibody was used in a range of 1.5625 to 100 nM (1.5625, 3.125, 6.25, 12.5, 25, 50, 100 nM) for each analyzed peptide.
Binding analysis was performed using streptavidin (SA) sensors on an Octet Red system (fortéBIO). 5 μg/ml of biotinylated peptides were used for loading (200 μl per sensor). […] Remained biotin binding sites on coated streptavidin sensors were blocked using 100 μg/ml biocytin (Sigma-Aldrich) for 5 minutes. For binding mode analysis of different peptides 500 nM TR66 antibody was used in the association step. For detailed analysis the antibody was used in a range of 1.5625 to 100 nM (1.5625, 3.125, 6.25, 12.5, 25, 50, 100 nM) for each analyzed peptide. The following program was used: • Baseline: 1000 rpm for 180 sec. • Load: 1000 rpm for 900 sec. • Baseline: 1000 rpm for 180 sec. • Blocking: 1000 rpm for 300 sec. • Association: 1000 rpm for 1200-2400 sec. • Dissociation: 1000 rpm for 1200-2400 sec.
The peptides displaying the highest binding affinities from the peptide microarray experiments were synthesized by standard Fmoc-based solid-phase-synthesis protocols and purified (HPLC purity: >80%). The binding characteristics of each peptide were determined. In the first instance all peptides were analysed via biolayer interferometry (BLI) to get a first impression whether the respective variant has a significant binding property at all (yes/no binding, Table 2). At his point, only one TR66 concentration (500 nM) was tested. Except variants aCD3-04-010 and aCD3-04-012 all peptides show a measurable binding activity.

[2] = molecular target: TR66 antibody (CD3ε specific antibody, clone TR66); test: Binding analysis using peptide ELISA, biotinylated peptides on streptavidin plates, TR66
Procedure: FIG. 3. Binding analysis of phage derived variants using a peptide based ELISA. Biotinylated peptides were immobilized on streptavidin plates (Nunc) in a concentration of 0.75 μg/ml. After blocking 30 μg/ml TR66 or an unrelated antibody (control ab) were added and incubated for 1 h at 37° C. Binding was detected with an alkaline phosphatase conjugated goat anti-human IgG antibody (Sigma) and the chromogenic substrate PNPP (para-nitrophenyl phosphate). All reactions were performed as duplicates. SD values are presented as error bars.
For the detection of TR66 or OKT3 (Bio-X-Cell), the CD3 mimicking peptides were immobilized on streptavidin plates (Nunc) in a concentration of 0.75 μg/ml in PBS buffer for 1 hour at 37° C. Subsequently, the plate was washed three times with washing buffer (0.01% Tween-20 in PBS buffer) before it was blocked with 3% BSA in PBS overnight at 4° C. To detect TR66 or OKT3, the blocked plate was washed again three times with washing buffer followed by the addition of TR66 or OKT3 and incubation for 30 min at 37° C. After another washing step, it was incubated with an alkaline phosphatase conjugated Goat anti-human or anti-mouse IgG, Fe antibody (Jackson Immuno Research) for additional 30 min at 37° C. Finally, the plate was washed again before being incubated with 1.5 mg/ml of the substrate PNPP (para-nitrophenyl phosphate) in appropriate substrate buffer (1 M Diethanolamine, 0.05 mM MgCl2, 0.01% sodium azide, pH 9.8) for 30 min at RT in the dark. 3 M KOH was used to stop the enzymatic reaction. Absorbance was measured with a microplate reader (Infinite M200, Tecan). For dual wavelength analysis, 405 nm was chosen as measurement wavelength and 492 nm as reference wavelength. Absorbance values were calculated by subtraction of the measured values for the reference wavelength and for the measurement wavelength. Calculation of apparent KD values was done by fitting the data with Sigma Plot 10 using a two-site saturation binding model.

TR66 antibody = test: Peptide microarray incubated with TR66, fluorescently labelled secondary antibody; type: binding; conditions: cyclic peptide immobilized through C-terminus; 1.0 μg/ml TR66; data not shown
Procedure: Peptides were synthesized and printed on peptide-microarray slides essentially as described previously (Funkner, A. et al., J. Mol. Biol. 425, 1340-1362 (2013)). In brief, the peptides were synthesized using SPOT synthesis (Wenschuh, H. et al., Biopolymers 55, 188-206 (2000)) cleaved from the solid support and cyclized (50% DMSO, PBS buffer pH 7-8, RT, 16 hours). Subsequently, all peptides were chemoselectively immobilized on functionalized glass slides as described earlier (Schnatbaum, K. et al., Biotechnol. J. 9, 545-554 (2014); Funkner, A. et al., J. Mol. Biol. 425, 1340-1362 (2013)). Each peptide was deposited on the microarray in triplicates.
The microarrays were incubated with 1.0 or 0.1 μg/ml TR66 in an HS 4800 microarray processing station (Tecan) for two hours at 30° C., followed by incubation with 1.0 μg/ml fluorescently labelled secondary antibody (Alexa647 anti-human Fe antibody; Jackson Immuno Research). Washing steps were performed prior every incubation step with 0.1% Tween-20 in 1×TBS. After the final incubation step the microarrays were washed (0.05% Tween-20 in 0.1×SSC) and dried in a stream of nitrogen. Each microarray was scanned using a GenePix Autoloader 4200AL (Molecular Devices, Pixel size: […]). Signal intensities were evaluated using GenePix Pro 7.0 analysis software (Molecular Devices). For each peptide, the mean of the three triplicates was calculated. […]

- Yes/no binding, BLI [1]: Yes
- Kd ([2]; TR66, mean of at least two individual measurements, two-site saturation binding model, read-out: Apparent KD, ELISA): 370 nM
- TR66 binding after chemical synthesis, ELISA-based binding analysis (FIG. 3) ([2]; peptide 0.75 μg/ml, 30 μg/ml TR66): could be verified
- TR66 binding on peptide microarray (TR66 antibody): strong binding
SMILES: C[C@H](N)C(=O)N[C@H]1CSSC[C@@H](C(=O)NCC(=O)NCC(=O)NCC(=O)N[C@@H](CO)C(=O)N[C@@H](CCCCNC(=O)CCCC[C@@H]2SC[C@@H]3NC(=O)N[C@@H]32)C(=O)O)NC(=O)[C@H](CCC(N)=O)NC(=O)[C@@H]2CCCN2C(=O)[C@H](CC(=O)O)NC(=O)CNC(=O)[C@@H]2CCCN2C(=O)[C@H](CCCNC(=N)N)NC(=O)[C@H]([C@@H](C)O)NC1=O [aCD3 C7C-4, ACTRPGDPQC-GGGS-K(Bio)] (H-ACTRPGDPQCGGGSK(Biotin)-OH; disulfide 2-10)
